Results on 25 compounds are retold here after patent US7491827B2, “Aryl sulfonamides useful as inhibitors of chemokine receptor activity” (Millennium Pharmaceuticals, Inc., priority 2003, dated 2009).

Bounds are passed on as bounds.

T1 sequence (P51685 whole entry): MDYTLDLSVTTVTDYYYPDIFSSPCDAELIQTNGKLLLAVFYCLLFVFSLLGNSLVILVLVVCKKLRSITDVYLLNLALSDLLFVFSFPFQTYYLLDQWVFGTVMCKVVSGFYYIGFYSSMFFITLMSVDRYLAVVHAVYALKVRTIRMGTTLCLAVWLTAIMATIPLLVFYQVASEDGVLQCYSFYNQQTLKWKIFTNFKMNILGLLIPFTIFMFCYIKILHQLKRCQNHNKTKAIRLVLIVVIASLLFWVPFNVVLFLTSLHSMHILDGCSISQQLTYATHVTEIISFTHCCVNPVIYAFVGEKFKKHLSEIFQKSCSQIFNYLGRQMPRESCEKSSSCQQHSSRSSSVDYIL

The assay addresses T1, cloned human CCR8 receptor stably expressed in L1.2 cells (Homo sapiens, UniProt P51685).
T1 construct: expressed in transfected cells
Kind of assay: whole cell binding screen: inhibition of biotinylated human I309 binding to CCR8 (FMAT 8100 HTS). Particulars: L1.2/hCCR8 cells, biotinylated human I-309, 10 point concentration response starting at 10 μM; read-out: Ki of compounds to inhibit I-309 binding to CCR8. In short, it runs like this:
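Ten-point dilutions, top 10 μM final, were tested for displacing biotin-I309 from hCCR8-transfected L1.2 cells in HEPES-buffered HBSS with BSA and sodium azide, mixing 0.5 h before FMAT 8100 detection. Signals converted to percent inhibition against untreated wells and a 100 nM excess unlabeled I309 control.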
As usually defined, the Ki is a dissociation constant, usually derived from enzyme kinetics or from competition with a known ligand. For the compound `Cc1cccc(NC(=O)c2ccc(S(=O)(=O)NC3CCNCC3)c3ccccc23)c1C` [Compound F-16, 4-(Piperidin-4-ylsulfamoyl)-naphthalene-1-carboxylic acid (2,3-dimethyl-phenyl)-amide], the Ki is less than 30 µM. For `O=C(Nc1ccccc1Cl)c1ccc(S(=O)(=O)NC2CCNCC2)c2ccccc12` [Compound F-17, 4-(Piperidin-4-ylsulfamoyl)-naphthalene-1-carboxylic acid (2-chloro-phenyl)-amide] the value was less than 30 µM; for `O=C(NC1CCOCC1)c1ccc(S(=O)(=O)NC2CCNCC2)c2ccccc12` [Compound F-18, 4-(Piperidin-4-ylsulfamoyl)-naphthalene-1-carboxylic acid (tetrahydro-pyran-4-yl)-amide], less than 30 µM; for `CCCC(=O)N1CCC(NS(=O)(=O)c2ccc(C(=O)Nc3cccc(C)c3C)c3ccccc23)CC1` [Compound F-19, 4-(1-Butyryl-piperidin-4-ylsulfamoyl)-naphthalene-1-carboxylic acid (2,3-dimethyl-phenyl)-amide], less than 0.5 µM. For `Cc1cccc(NC(=O)c2ccc(S(=O)(=O)NC3CCN(C(=O)N(C)C)CC3)c3ccccc23)c1C` [Compound F-20, 4-[4-(2,3Dimethyl-phenylcarbamoyl)-naphthalene-1-sulfonylamino]-piperidine-1-carboxylic acid dimethylamide] the value was less than 0.5 µM; for `CN(C)C(=O)N1CCC(NS(=O)(=O)c2ccc(C(=O)NC3CCOCC3)c3ccccc23)CC1` [Compound F-21, 4-[4-(Tetrahydro-pyran-4-ylcarbamoyl)-naphthalene-1-sulfonylamino]-piperidine-1-carboxylic acid dimethylamide], less than 0.5 µM. For `CCCC(=O)N1CCC(NS(=O)(=O)c2ccc(C(=O)Nc3ccccc3Cl)c3ccccc23)CC1` [Compound F-22, 4-(1-Butyryl-piperidin-4-ylsulfamoyl)-naphthalene-1-carboxylic acid (2-chloro-phenyl)-amide] the value was less than 0.5 µM; for `CN(C)C(=O)N1CCC(NS(=O)(=O)c2ccc(C(=O)Nc3ccccc3Cl)c3ccccc23)CC1` [Compound F-23, 4-[4-(2-Chloro-phenylcarbamoyl)-naphthalene-1-sulfonylamino]-piperidine-1-carboxylic acid dimethylamide], less than 0.5 µM; for `CCCC(=O)N1CCC(NS(=O)(=O)c2ccc(C(=O)NC3CCOCC3)c3ccccc23)CC1` [Compound F-24, 4-(1-Butyryl-piperidin-4-ylsulfamoyl)-naphthalene-1-carboxylic acid (tetrahydro-pyran-4-yl)-amide], less than 1 µM. Take `CCCC(=O)N1CCC(NS(=O)(=O)c2ccc(C(=O)Nc3ccccc3)c3ccccc23)CC1` [Compound F-25, 4-(1-Butyryl-piperidin-4-ylsulfamoyl)-naphthalene-1-carboxylic acid phenylamide]: the Ki is less than 0.5 µM. Under `CCCC(=O)N1CCC(NS(=O)(=O)c2ccc(C(=O)Nc3cccc(C)c3)c3ccccc23)CC1` [Compound F-26, 4-(1-Butyryl-piperidin-4-ylsulfamoyl)-naphthalene-1-carboxylic acid m-tolylainde] stands less than 0.5 µM; under `CCOC(=O)N1CCC(NS(=O)(=O)c2ccc(C(=O)N(C)C3CCCCC3)c3ccccc23)CC1` [Compound F-27, 4-[4-(Cyclohexyl-methyl-carbamoyl)-naphthalene-1-sulfonylamino]-piperidine-1-carboxylic acid ethyl ester], less than 0.5 µM; under `CN(C)C(=O)N1CCC(NS(=O)(=O)c2ccc(C(=O)N(C)C3CCCCC3)c3ccccc23)CC1` [Compound F-28, 4-[4-(Cyclohexyl-methyl-carbamoyl)-naphthalene-1-sulfonylamino]-piperidine-1-carboxylic acid dimethylamide], less than 0.5 µM. For `CCOC(=O)N1CCC(NS(=O)(=O)c2ccc(CNC(=O)c3ccccc3C)c3ccccc23)CC1` [Compound G-1, 4-{4-[(2-Methyl-benzoylamino)-methyl]-naphthalene-1-sulfonylamino}-piperidine-1-carboxylic acid ethyl ester] the value was less than 0.5 µM; for `CCOC(=O)N1CCC(NS(=O)(=O)c2ccc(CNC(=O)c3cccc(C)c3C)c3ccccc23)CC1` [Compound G-2, 4-{4-[(2,3-Dimethyl-benzoylamino)-methyl]-naphthalene-1-sulfonylamino}-piperidine-1-carboxylic acid ethyl ester], less than 0.5 µM; for `O=C1c2ccccc2C(=O)N1Cc1ccc(S(=O)(=O)NC2CCCCC2)c2ccccc12` [Compound G-4, 4-(1,3-Dioxo-1,3-dihydro-isoindol-2-ylmethyl)-naphthalene-1-sulfonic acid cyclohexylamide], less than 30 µM. For `Cc1ccccc1C(=O)NCc1ccc(S(=O)(=O)NC2CCCCC2)c2ccccc12` [Compound G-5, N-(4-Cyclohexylsulfamoyl-naphthalen-1-ylmethyl)-2-methyl-benzamide] the value was less than 1 µM. `O=C(NCc1ccc(S(=O)(=O)NC2CCCCC2)c2ccccc12)c1ccco1` [Compound G-6, Furan-2-carboxylic acid (4-cyclohexylsulfamoyl-naphthalen-1-ylmethyl)-amide]: the Ki is less than 1 µM. Take `CCOC(=O)N1CCC(NS(=O)(=O)c2ccc(CNCc3ccc(Cl)cc3)c3ccccc23)CC1` [Compound G-7, 4-{4-[(4-Chloro-benzylamino)-methyl]-naphthalene-1-sulfonylamino}-piperidine-1-carboxylic acid ethyl ester]: the Ki was less than 0.5 µM.

Turning to `CCOC(=O)N1CCC(NS(=O)(=O)c2ccc(CNC3CCCCC3)c3ccccc23)CC1` [Compound G-8, 4-(4-Cyclohexylainnomethyl-naphthalene-1-suffonylamino)-piperidine-1-carboxylic acid ethyl ester], the Ki is less than 0.5 µM. For `CCOC(=O)N1CCC(NS(=O)(=O)c2ccc(CNCc3ncc[nH]3)c3ccccc23)CC1` [Compound G-9, 4-(4-{[(lH-Imidazol-2-ylmethyl)-amino]-methyl}-naphthalene-1-sulfonylamino)-piperidine-1-carboxylic acid ethyl ester] the value was less than 30 µM. As to `CCOC(=O)N1CCC(NS(=O)(=O)c2ccc(CNCc3ccc(OC)cc3)c3ccccc23)CC1` [Compound G-10, 4-{4-[(4-Methoxy-benzylamino)-methyl]-naphthalene-1-sulfonylamino}-piperidine-1-carboxylic acid ethyl ester], the Ki was less than 0.5 µM. For `CCOC(=O)N1CCC(NS(=O)(=O)c2ccc(CNCc3ccccc3C)c3ccccc23)CC1` [Compound G-11, 4-{4-[(2-Methyl-benzylamino)-methyl]-naphthalene-1-sulfonylamino}-piperidine-1-carboxylic acid ethyl ester] the value was less than 0.5 µM; for `CCOC(=O)N1CCC(NS(=O)(=O)c2ccc(CNCc3cccnc3)c3ccccc23)CC1` [Compound G-12, 4-(4-{[(Pyridin-3-ylmethyl)-amino]-methyl}-naphthalene-1-sulfonylamino)-piperidine-1-carboxylic acid ethyl ester], less than 0.5 µM; for `CCOC(=O)N1CCC(NS(=O)(=O)c2ccc(CNCc3ccco3)c3ccccc23)CC1` [Compound G-13, 4-(4-{[(Furan-2-ylmethyl)-amino]-methyl}-naphthalene-1-sulfonylamino)-piperidine-1-carboxylic acid ethyl ester], less than 0.5 µM.
